Experimental data published in ChEMBL document CHEMBL1201862, “PubChem BioAssay data set” (2004).
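How tested: cells in 96-well plates exposed to compound for 48 hours at five concentrations. The concentration for 50% growth inhibition is given as GI50.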 Active and inactive are the calls of the source. Cut-off read from the data, not from the text of the source: active = GI50 up to about 1.1 µM and inactive = higher.

Experiments:
Assay in all cases: DTP human tumour cell line panel, 48 h
A549 = tested on: A549
SK-MEL-28 = tested on: SK-MEL-28
MDA-MB-231 = tested on: MDA-MB-231
SK-MEL-5 = tested on: SK-MEL-5
MOLT-4 = tested on: MOLT-4
COLO 205 = tested on: COLO 205
HCT-116 = tested on: HCT-116
HCT-15 = tested on: HCT-15
UACC-62 = tested on: UACC-62
LOX IMVI = tested on: LOX IMVI
786-0 = tested on: 786-0
NCI-H23 = tested on: NCI-H23
SR = tested on: SR
SF-539 = tested on: SF-539
SW-620 = tested on: SW-620
SNB-19 = tested on: SNB-19
RXF 393 = tested on: RXF 393
SK-OV-3 = tested on: SK-OV-3
RPMI-8226 = tested on: RPMI-8226
SF-295 = tested on: SF-295

Structure (SMILES)	GI50 (A549)	GI50 (SK-MEL-28)	GI50 (MDA-MB-231)	GI50 (SK-MEL-5)	GI50 (MOLT-4)	GI50 (COLO 205)	GI50 (HCT-116)	GI50 (HCT-15)	GI50 (UACC-62)	GI50 (LOX IMVI)	GI50 (786-0)	GI50 (NCI-H23)	GI50 (SR)	GI50 (SF-539)	GI50 (SW-620)	GI50 (SNB-19)	GI50 (RXF 393)	GI50 (SK-OV-3)	GI50 (RPMI-8226)	GI50 (SF-295)
COC(=O)C1=C(C(=O)OC)C(C(=O)c2ccccc2)N2N=C(c3ccc(Cl)cc3)C=CC12 (stereo not given)	31 µM (inactive)	> 100 µM (inactive)	> 100 µM (inactive)	9.23 µM (inactive)	5.69 µM (inactive)	> 100 µM (inactive)	3.48 µM (inactive)	9.62 µM	23.9 µM (inactive)	18.7 µM (inactive)	> 100 µM (inactive)	26.1 µM (inactive)	> 100 µM (inactive)	> 100 µM (inactive)	> 100 µM (inactive)	> 100 µM (inactive)	4.15 µM (inactive)	> 100 µM (inactive)	3.95 µM (inactive)	44.7 µM (inactive)
Cc1ccc(C(=O)C(Cl)C(Cl)c2ccc(C)cc2)cc1 (stereo not given)	21.9 µM (inactive)	2.68 µM (inactive)	5.14 µM (inactive)	2.34 µM (inactive)	2.03 µM (inactive)	2.07 µM (inactive)	1.88 µM (inactive)	1.83 µM	3.67 µM (inactive)	1.87 µM (inactive)	2.03 µM (inactive)	9.38 µM (inactive)	1.82 µM (inactive)	2.49 µM (inactive)	2.39 µM (inactive)	8.2 µM (inactive)	7.46 µM (inactive)	15.2 µM (inactive)	1.56 µM (inactive)	11.4 µM (inactive)
O=C(/C=C/c1ccc2c(c1)OCO2)CC(=O)C(=O)c1c[nH]c2ccccc12	35.3 µM (inactive)	> 100 µM (inactive)	39.4 µM (inactive)	58.3 µM (inactive)	20.7 µM (inactive)	35.3 µM (inactive)	31.8 µM (inactive)	36.8 µM	44.2 µM (inactive)	40.2 µM (inactive)	41.9 µM (inactive)	34.2 µM (inactive)	31.6 µM (inactive)	32.4 µM (inactive)	29.4 µM (inactive)	46.2 µM (inactive)	31.6 µM (inactive)	35.2 µM (inactive)	35.4 µM (inactive)	61.8 µM (inactive)
COc1ccc(OC)c2c1C[C@@H]1C(C#N)N3[C@H](Cc4c(OC)ccc(OC)c4[C@@H]3C)C(=O)N1[C@H]2C (stereo not given in full)	9.53 µM (inactive)	3.03 µM (inactive)	2.08 µM (inactive)	1.75 µM (inactive)	2.43 µM (inactive)	1.84 µM (inactive)	3.83 µM (inactive)	3.08 µM	2.36 µM (inactive)	2.44 µM (inactive)	3.01 µM (inactive)	4.5 µM (inactive)	2.15 µM (inactive)	2.5 µM (inactive)	2.86 µM (inactive)	2.15 µM (inactive)	1.83 µM (inactive)	11.9 µM (inactive)	2.53 µM (inactive)	14.9 µM (inactive)
CCOC(=O)NC(Nc1ncn(C(NC(=O)OCC)(C(F)(F)F)C(F)(F)F)n1)(C(F)(F)F)C(F)(F)F	> 100 µM (inactive)	> 100 µM (inactive)	> 100 µM (inactive)	> 100 µM (inactive)	> 100 µM (inactive)	> 100 µM (inactive)	> 100 µM (inactive)	> 100 µM	> 100 µM (inactive)	> 100 µM (inactive)	> 100 µM (inactive)	> 100 µM (inactive)	> 100 µM (inactive)	> 100 µM (inactive)	> 100 µM (inactive)	> 100 µM (inactive)	> 100 µM (inactive)	> 100 µM (inactive)	> 100 µM (inactive)	> 100 µM (inactive)
COC1=C2CC(C)CC(OC)C(OC(=O)CN)[C@H](C)/C=C(\C)C(OC(N)=O)C(OC)/C=C\C=C(/C)C(=O)NC(=CC1=O)C2=O (stereo not given in full)	9.73 µM (inactive)	0.161 µM (active)	0.42 µM (active)	0.855 µM (active)	0.344 µM (active)	0.0562 µM (active)	0.498 µM (active)	0.899 µM	0.468 µM (active)	0.284 µM (active)	0.429 µM (active)	0.369 µM (active)	0.321 µM (active)	1.24 µM (inactive)	0.065 µM (active)	6.55 µM (inactive)	0.507 µM (active)	3.32 µM (inactive)	0.902 µM (active)	3.84 µM (inactive)
COc1ccc(/C(C)=N/OC(=O)c2c(-c3ccccc3Cl)noc2C)cc1CN1CCOCC1	19.1 µM (inactive)	19.7 µM (inactive)	20 µM (inactive)	17.3 µM (inactive)	24 µM (inactive)	16.2 µM (inactive)	18.2 µM (inactive)	26.5 µM	15 µM (inactive)	14.9 µM (inactive)	24.5 µM (inactive)	32.6 µM (inactive)	25 µM (inactive)	24.8 µM (inactive)	43.1 µM (inactive)	16.2 µM (inactive)	26.3 µM (inactive)	29.4 µM (inactive)	26.1 µM (inactive)	11.5 µM (inactive)
O=C(O)c1cccc(S(=O)(=O)NCCO)c1	> 100 µM (inactive)	> 100 µM (inactive)	> 100 µM (inactive)	> 100 µM (inactive)	> 100 µM (inactive)	> 100 µM (inactive)	> 100 µM (inactive)	> 100 µM	> 100 µM (inactive)	> 100 µM (inactive)	> 100 µM (inactive)	> 100 µM (inactive)	> 100 µM (inactive)	> 100 µM (inactive)	> 100 µM (inactive)	> 100 µM (inactive)	> 100 µM (inactive)	> 100 µM (inactive)	> 100 µM (inactive)	> 100 µM (inactive)
